This assay has as its target T1, human RXFP1 (Homo sapiens, UniProt Q9HBX9).
T1 construct: expressed in transfected cells
T1 sequence (Q9HBX9 1-757): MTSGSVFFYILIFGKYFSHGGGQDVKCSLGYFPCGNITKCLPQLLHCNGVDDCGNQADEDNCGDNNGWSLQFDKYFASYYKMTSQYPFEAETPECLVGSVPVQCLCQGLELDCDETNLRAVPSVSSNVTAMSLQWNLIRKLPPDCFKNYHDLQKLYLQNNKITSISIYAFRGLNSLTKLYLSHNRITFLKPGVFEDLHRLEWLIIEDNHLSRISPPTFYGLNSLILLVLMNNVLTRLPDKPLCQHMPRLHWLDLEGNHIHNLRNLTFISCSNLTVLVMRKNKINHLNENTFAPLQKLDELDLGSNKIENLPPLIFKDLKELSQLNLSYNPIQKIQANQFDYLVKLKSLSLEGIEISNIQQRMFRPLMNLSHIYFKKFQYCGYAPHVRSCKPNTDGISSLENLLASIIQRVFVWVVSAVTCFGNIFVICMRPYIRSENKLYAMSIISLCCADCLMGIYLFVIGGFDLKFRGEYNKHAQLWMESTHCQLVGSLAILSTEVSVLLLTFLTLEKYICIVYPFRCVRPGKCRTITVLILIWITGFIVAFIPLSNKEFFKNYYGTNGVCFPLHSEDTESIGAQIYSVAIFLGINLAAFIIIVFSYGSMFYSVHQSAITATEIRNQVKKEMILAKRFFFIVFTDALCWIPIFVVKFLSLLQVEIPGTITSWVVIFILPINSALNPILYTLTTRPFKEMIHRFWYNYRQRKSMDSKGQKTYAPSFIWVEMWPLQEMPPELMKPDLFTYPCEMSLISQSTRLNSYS
The assay is described as follows: human RXFP1 (hRXFP1) HEK293 cAMP assay (HTRF). The format is cell-based. The conditions noted are these: HEK293 cells stably expressing human RXFP1, 30 min at room temperature. Put shortly: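 HEK293 cells stably expressing human RXFP1 (1500 cells/well) in HBSS/20 mM HEPES/0.05% BSA/0.5 mM IBMX, treated with compound (0.010 nM–50 µM final, 2% DMSO) for 30 min at room temperature. Intracellular cAMP read by HTRF; potency from 4-parameter logistic fit of cAMP versus concentration.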
A general note: Changes in cAMP serve as a functional read-out for many G protein-coupled receptors.

Turning to `CC1(C)Cc2cc(C3=NOC4CC(CO)CC34)cc(C(=O)N[C@@H]3C4CCC(/C4=C/C4CC4)[C@@H]3C(=O)Nc3ccc(F)c(C(F)(F)F)c3)c2O1` (some centres unmarked) [Example 144], the EC50 (as a rule, the concentration that produces a half-maximal response) stood at 2 nM.

Consider `CC1(C)Cc2cc(C3=NOC4COCC34)cc(C(=O)N[C@@H]3C4CCC(/C4=C/C4CC4)[C@@H]3C(=O)Nc3ccc(F)c(C(F)(F)F)c3)c2O1` (stereo partly drawn) [Example 145, 5-{3aH,4H,6H,6aH-furo[3,4-d][1,2]oxazol-3-yl}-N-[(1R,2R,3S, 4R,7Z,)-7-(cyclopropyl-methylidene)-3-{[4-fluoro-3-(trifluoromethyl)phenyl]carbamoyl}bicyclo[2.2.1]heptan-2-yl]-2,2-dimethyl-2,3-dihydro-1-benzofuran-7-carboxamide], for which the response was half-maximal at 3 nM (EC50). This EC50 lies about 1.5-fold higher than the previous one.

The compound `CC(C)(C)CNC(=O)[C@@H]1[C@H](NC(=O)c2cc(C3=NOC4CC(CO)CC34)cc3c2OC(C)(C)C3)[C@@H]2CC[C@H]1/C2=C/C1CC1` (stereo partly drawn) [Example 146, N-[(1R,2R,3S, 4R,7Z)-7-(cyclopropyl-methylidene)-3-[(2,2-dimethylpropyl)carbamoyl]bicyclo [2.2.1]heptan-2-yl]-5-[5-(hydroxymethyl)-3aH,4H,5H,6H,6aH-cyclopenta[d][1,2]oxazol-3-yl]-2,2-dimethyl-2,3-dihydro-1-benzofuran-7-carboxamide] had an EC50 of 3.5 nM.

With `CC1(C)Cc2cc(C3=NOC4CCOCC34)cc(C(=O)N[C@H]3[C@@H](C(=O)Nc4ccc(F)c(C(F)(F)F)c4)[C@H]4CC[C@@H]3/C4=C\C3CC3)c2O1` (stereo partly drawn) [Example 147, 5-{3aH,4H,6H, 7H,7aH-pyrano[3,4-d][1,2]oxazol-3-yl}-N-[(1R,2R,3S,4R,7Z)-7-(cyclopropyl-methylidene)-3-{[4-fluoro-3-(trifluoromethyl)phenyl]carbamoyl}bicyclo[2.2.1]heptan-2-yl]-2,2-dimethyl-2,3-dihydro-1-benzofuran-7-carboxamide], it took 3.8 nM to reach a half-maximal effect (EC50).

Consider `COc1ncc(-c2cc([C@H](OC(=O)NC3CCC3)C(F)(F)F)ccc2F)cc1C(=O)N[C@H]1[C@@H](C(=O)NC(C)C2(C)CC2)[C@H]2CC[C@@H]1/C2=C\C1CC(F)(F)C1` (stereo partly drawn) [Example 148, (S)-1-(3-(5-(((1R,2R,3S,4R, Z)-7-((3,3-difluorocyclobutyl)methylene)-3-(((R)-1-(1-methylcyclopropyl)ethyl)carbamoyl)bicyclo[2.2.1]heptan-2-yl)carbamoyl)-6-methoxypyridin-3-yl)-4-fluorophenyl)-2,2,2-trifluoroethyl cyclobutylcar-bamate], for which a half-maximal response (EC50) required 0.5 nM. This EC50 lies about 7.6-fold lower than the previous one.

The compound `COc1ncc(C(=O)NCC2(S(C)(=O)=O)CC2)cc1C(=O)N[C@H]1[C@@H](C(=O)N[C@H](C)C2(C)CC2)[C@H]2CC[C@@H]1/C2=C\C1CC1` [Example 149, N3-[(1R,2R,3S,4R, 7Z)-7-(cyclopropyl-methylidene)-3-{[(1R)-1-(1-methylcyclopropyl)ethyl]carbamoyl}bicyclo[2.2.1]heptan-2-yl]-N5-[(1-methanesulfonylcyclopropyl)methyl]-2-methoxypyridine-3,5-dicarboxamide] registered an EC50 of 2.7 nM. Against the preceding compound, the EC50 is about 5.4-fold higher.

In turn, `COc1ncc(-c2c(C)nn3c2COCC3)cc1C(=O)N[C@H]1[C@@H](C(=O)Nc2ccc(F)c(C(F)(F)F)c2)[C@H]2CC[C@@H]1/C2=C\C1CCCC1` [Example 150, N-[(1R,2R,3S,4R, 7Z)-7-(cyclopentyl-methylidene)-3-{[4-fluoro-3-(trifluoromethyl)phenyl]carbamoyl}bicyclo[2.2.1]heptan-2-yl]-2-methoxy-5-{2-methyl-4H,6H,7H-pyrazolo[3,2-c][1,4]oxazin-3-yl}pyridine-3-carboxamide] gave an EC50 of 5.3 nM.

As to `COc1ncc(C(=O)N2CC(S(C)(=O)=O)C2)cc1C(=O)N[C@H]1[C@@H](C(=O)N[C@H](C)C2(C)CC2)[C@H]2CC[C@@H]1/C2=C\C1CC1` [Example 151, N-[(1R,2R,4R,7Z)-7-(cyclopropyl-methylidene)-3-{[(1R)-1-(1-methylcyclopropyl)ethyl]carbamoyl}bicyclo[2.2.1]heptan-2-yl]-5-(3-methanesulfonylazetidine-1-carbonyl)-2-methoxypyridine-3-carboxamide], the EC50 turned out to be 3.5 nM.
